{
  "source": "patent US11213516B2",
  "about": "“Intravaginally applicable devices comprising antiviral compounds” (AICURIS ANTI-INFECTIVE CURES GMBH, priority 2017, dated 2022)",
  "assay": "Plasma concentration after intravaginal administration of vaginal ring",
  "assay_type": "in vivo, Cynomolgus monkeys",
  "details": "for Plasma concentration of Pritelivir free base, Mean: group mean; for Plasma concentration of Pritelivir free base: individual animals",
  "experimental": "The study was performed in four single dose phases with 28-day sampling period after Phases 1 and 2 (7-day washout period between doses). Vaginal rings were investigated for Pritelivir free base and Pritelivir mesylate salt at two dose levels per formulation. The test items were applied as vaginal ring in Phases 1 and 2 to female monkeys. The study design is below in the Table 3.\nVenous blood samples were taken from all animals at the following times in relation to dosing.\n• Blood sample site Femoral site • Blood volume 1.0 mL • Anticoagulant For phase 1 samples, Day 1-3 only, blood was sampled into standard HLS vials containing lithium heparin and 20 μL aqueous phosphoric acid (3.5 molar). Thereafter, blood was collected into tubes containing lithium heparin only. Plasma was obtained from all samples by centrifugation. Samples were appropriately labeled and stored deep frozen (−20° C. or below) until analysis • Total no. of blood samples 350 Vaginal Fluid Sampling\nAfter suitable dilution, plasma and vaginal samples were analyzed on UPLC system Waters Acquity UPLC-HSS PFP column with 1.8 μm particles (100×2.1 mm) by gradient elution using 0.1% formic acid and methanol containing 0.1% formic acid. For detection, a time-of-flight mass spectrometer (Xevo GS-2 QTOF, Waters) was used operating in positive ionization mode (MSe analysis). The samples were analyzed for their content of Pritelivir free base.\nThe study was designed to obtain information on the time-course of unchanged test compound concentrations in plasma and vaginal fluid/tissue, following single intravaginal administration of rings to female Cynomolgus monkeys. Objectives of this study were to determine the safety and tolerance of Pritelivir loaded rings, as well as systemic and local exposure (plasma, vaginal fluid and vaginal and vulval tissue, respectively). Local exposures were compared with in vitro efficacy data of Pritelivir to get an idea on initial pharmacokinetic/pharmacodynamic (PK/PD) parameters for vaginal rings, i.e. to assess the potential ability of a Pritelivir loaded ring to suppress viral replication in the target tissue. Table 9 gives an overview on the EC50 values of Pritelivir on HSV-1 and HSV-2 Data source: Field, H. J., et al., Baseline sensitivity of HSV-1 and HSV-2 clinical isolates and defined acyclovir-resistant strains to the helicase-primase inhibitor pritelivir. Antiviral Res, 2013. 100(2): p. 297-9. EC50=50% effective concentration.",
  "key": {"[1]": {"details": "ring 40 mg free base, Phase 1 Group 1, 0.0833 d"}, "[2]": {"details": "ring 40 mg free base, Phase 1 Group 1, 2 d"}, "[3]": {"details": "ring 40 mg free base, Phase 1 Group 1, 3 d"}, "[4]": {"details": "ring 240 mg free base, Phase 2 Group 1, 2 d"}, "[5]": {"details": "ring 240 mg free base, Phase 2 Group 1, 3 d"}, "[6]": {"details": "ring 240 mg free base, Phase 2 Group 1, 4 d"}, "[7]": {"details": "ring 240 mg free base, Phase 2 Group 1, 7 d"}, "[8]": {"details": "ring 240 mg free base, Phase 2 Group 1, 10 d"}, "[9]": {"details": "ring 240 mg free base, Phase 2 Group 1, 14 d"}, "[10]": {"details": "ring 240 mg free base, Phase 2 Group 1, 17 d"}, "[11]": {"details": "ring 240 mg free base, Phase 2 Group 1, 21 d"}, "[12]": {"details": "ring 240 mg free base, Phase 2 Group 1, 24 d"}, "[13]": {"details": "ring 240 mg free base, Phase 2 Group 1, 28 d"}},
  "note": "Where “and” joins values, the source holds several entries; their conditions need not be identical. Equal entries are not always repeated. Marks after values point to notes of the source that are not given here.",
  "data": [
    {"smiles": "Cc1nc(N(C)C(=O)Cc2ccc(-c3ccccn3)cc2)sc1S(N)(=O)=O", "note": "[Pritelivir free base]", "values": [
      {"measurement": "Plasma concentration of Pritelivir free base, Mean", "setting": "[1]", "value": "5.28 ^ μg/L"},
      {"measurement": "Plasma concentration of Pritelivir free base", "setting": "[1]", "value": "6.03 ^ μg/L and 4.53 ^ μg/L"},
      {"measurement": "Plasma concentration of Pritelivir free base", "setting": "ring 40 mg free base, Phase 1 Group 1, 0.167 d", "value": "6.90 ^ μg/L and 7.56 ^ μg/L"},
      {"measurement": "Plasma concentration of Pritelivir free base", "setting": "ring 40 mg free base, Phase 1 Group 1, 0.333 d", "value": "8.54 ^ μg/L and 10.9 ^ μg/L and 3.97 ^ μg/L"},
      {"measurement": "Plasma concentration of Pritelivir free base, Mean", "setting": "[2]", "value": "10.2 ^ μg/L"},
      {"measurement": "Plasma concentration of Pritelivir free base", "setting": "[2]", "value": "4.07 ^ μg/L and 11.6 ^ μg/L and 18.3 ^ μg/L and 6.75 ^ μg/L"},
      {"measurement": "Plasma concentration of Pritelivir free base, Mean", "setting": "[3]", "value": "9.20 ^ μg/L"},
      {"measurement": "Plasma concentration of Pritelivir free base", "setting": "[3]", "value": "4.80 ^ μg/L and 7.29 ^ μg/L and 18.4 ^ μg/L and 6.30 ^ μg/L"},
      {"measurement": "Plasma concentration of Pritelivir free base", "setting": "ring 40 mg free base, Phase 1 Group 1, 4 d", "value": "3.41 ^a μg/L and 5.30 ^ μg/L and 3.51 ^a μg/L"},
      {"measurement": "Plasma concentration of Pritelivir free base", "setting": "ring 40 mg free base, Phase 1 Group 1, 7 d", "value": "3.22 ^a μg/L and 3.86 ^a μg/L and 4.00 ^ μg/L"},
      {"measurement": "Plasma concentration of Pritelivir free base", "setting": "ring 40 mg free base, Phase 1 Group 1, 10 d", "value": "3.02 ^a μg/L and 3.74 ^a μg/L and 2.75 ^a μg/L"},
      {"measurement": "Plasma concentration of Pritelivir free base", "setting": "ring 40 mg free base, Phase 1 Group 1, 14 d", "value": "2.83 ^a μg/L and 4.32 ^ μg/L and 3.29 ^a μg/L"},
      {"measurement": "Plasma concentration of Pritelivir free base", "setting": "ring 40 mg free base, Phase 1 Group 1, 17 d", "value": "4.08 ^ μg/L and 3.48 ^a μg/L and 2.59 ^a μg/L"},
      {"measurement": "Plasma concentration of Pritelivir free base", "setting": "ring 40 mg free base, Phase 1 Group 1, 21 d", "value": "3.08 ^a μg/L and 2.67 ^a μg/L"},
      {"measurement": "Plasma concentration of Pritelivir free base", "setting": "ring 40 mg free base, Phase 1 Group 1, 24 d", "value": "2.77 ^a μg/L"},
      {"measurement": "Plasma concentration of Pritelivir free base", "setting": "ring 40 mg free base, Phase 1 Group 1, 28 d", "value": "2.76 ^a μg/L and 3.00 ^a μg/L"},
      {"measurement": "Plasma concentration of Pritelivir free base", "setting": "ring 240 mg free base, Phase 2 Group 1, 0.0417 d", "value": "2.96 ^a μg/L"},
      {"measurement": "Plasma concentration of Pritelivir free base", "setting": "ring 240 mg free base, Phase 2 Group 1, 0.0833 d", "value": "2.95 ^a μg/L"},
      {"measurement": "Plasma concentration of Pritelivir free base", "setting": "ring 240 mg free base, Phase 2 Group 1, 0.167 d", "value": "2.82 ^a μg/L and 8.45 μg/L and 4.56 μg/L and 2.49 ^a μg/L"},
      {"measurement": "Plasma concentration of Pritelivir free base", "setting": "ring 240 mg free base, Phase 2 Group 1, 0.333 d", "value": "3.78 ^a μg/L and 10.1 μg/L and 5.80 μg/L and 3.79 ^a μg/L"},
      {"measurement": "Plasma concentration of Pritelivir free base, Mean", "setting": "[4]", "value": "14.3 ^ μg/L"},
      {"measurement": "Plasma concentration of Pritelivir free base", "setting": "[4]", "value": "10.1 ^ μg/L and 23.0 μg/L and 9.89 μg/L"},
      {"measurement": "Plasma concentration of Pritelivir free base, Mean", "setting": "[5]", "value": "17.0 ^ μg/L"},
      {"measurement": "Plasma concentration of Pritelivir free base", "setting": "[5]", "value": "15.6 ^ μg/L and 15.2 μg/L and 10.2 ^ μg/L"},
      {"measurement": "Plasma concentration of Pritelivir free base, Mean", "setting": "[6]", "value": "17.0 ^ μg/L"},
      {"measurement": "Plasma concentration of Pritelivir free base", "setting": "[6]", "value": "13.9 ^ μg/L and 16.1 μg/L and 12.2 ^ μg/L"},
      {"measurement": "Plasma concentration of Pritelivir free base, Mean", "setting": "[7]", "value": "13.1 ^ μg/L"},
      {"measurement": "Plasma concentration of Pritelivir free base", "setting": "[7]", "value": "11.8 ^ μg/L and 14.2 μg/L and 10.3 ^ μg/L"},
      {"measurement": "Plasma concentration of Pritelivir free base, Mean", "setting": "[8]", "value": "8.80 ^ μg/L"},
      {"measurement": "Plasma concentration of Pritelivir free base", "setting": "[8]", "value": "8.27 ^ μg/L and 9.04 μg/L and 8.43 ^ μg/L"},
      {"measurement": "Plasma concentration of Pritelivir free base, Mean", "setting": "[9]", "value": "8.70 ^ μg/L"},
      {"measurement": "Plasma concentration of Pritelivir free base", "setting": "[9]", "value": "6.33 ^ μg/L and 8.33 μg/L and 10.6 ^ μg/L"},
      {"measurement": "Plasma concentration of Pritelivir free base, Mean", "setting": "[10]", "value": "8.67 ^ μg/L"},
      {"measurement": "Plasma concentration of Pritelivir free base", "setting": "[10]", "value": "5.58 ^ μg/L and 9.84 μg/L and 8.41 ^ μg/L"},
      {"measurement": "Plasma concentration of Pritelivir free base, Mean", "setting": "[11]", "value": "6.97 ^ μg/L"},
      {"measurement": "Plasma concentration of Pritelivir free base", "setting": "[11]", "value": "6.02 ^ μg/L and 8.37 μg/L and 5.71 ^ μg/L"},
      {"measurement": "Plasma concentration of Pritelivir free base, Mean", "setting": "[12]", "value": "8.97 ^ μg/L"},
      {"measurement": "Plasma concentration of Pritelivir free base", "setting": "[12]", "value": "4.96 ^ μg/L and 11.3 μg/L and 9.86 ^ μg/L"},
      {"measurement": "Plasma concentration of Pritelivir free base, Mean", "setting": "[13]", "value": "8.79 ^ μg/L"},
      {"measurement": "Plasma concentration of Pritelivir free base", "setting": "[13]", "value": "5.57 ^ μg/L and 9.32 μg/L and 7.55 ^ μg/L"}
    ]}
  ]
}
